Assay results as given in US6350769B1 (The Regents of the University of California, priority 1999, dated 2002).

What was measured:
[1] = test system: CTLL-2 cells; assay: control CTLL-2 cell response to recombinant murine IL-2; type: cell-based, mouse; conditions: 10 μM-10 mM
Method: (§1) Mice (6-8 weeks in age) were injected with 20 nM GADp35 peptide in 50% complete Freund's adjuvant (CFA, Gibco) in their hind food-pad. […] The supernatant of the cultured cells was harvested and the activity of IL-2 was measured using the IL-2-dependent cell line CTLL-2. Recombinant mouse IL-2 (Genzyme) was used as a standard.

[2] = test system: lymph node mononuclear cells from GADp35 immunized NOD mice; assay: IL-2 production by antigen stimulated T cells (CTLL proliferation readout); type: cell-based; conditions: GADp35 at 2, 7 and 20 micromolar; 36 hours; different concentrations of GABA
Method: The IL-2 activity in supernatant was determined by IL-2-dependent CTLL proliferation. The data are expressed as IL-2 units/ml±SD.
as §1

[3] = test system: mononuclear splenic cells; assay: T cell response to PMA and ionomycin; type: cell-based, mice; conditions: 10 μM-10 mM
[4] = test system: NOD-scid mice; assay: adoptive transfer of IDDM to NOD-scid mice; type: in vivo; conditions: 600 μg/day
From the text: Ten to twenty million splenocytes from NOD mice with recent onset of IDDM were intravenously injected into recipient 6-week-old mice. […] (n=12 for both groups).
A NOD strain congenic for the severe combined immunodeficiency (scid) mutation developed to study diabetogenesis in NOD mice was used in the adoptive transfer experiment. Neither insulitis nor diabetes is observed in the NOD-scid mice because they lack functional lymphocytes. This ensured that the T cells responsible for diabetes in recipient NOD-scid mice were derived from the diabetic donor NOD mice. Only female NOD mice were used since they incur a higher incidence of IDDM than males.
The control mice received a placebo pellet instead the GABA pellet. The mice were monitored for diabetes onset by testing their urine glucose levels with Tes-tape and blood glucose levels with a glucometer. The onset of IDDM is defined as two consecutive blood glucose readings of over 300 mg/dl.

[5] = test system: NOD mice; assay: antigen-primed DTH response (KLH footpad swelling); type: in vivo
Method: The next day, the mice were immunized with KLH in 50% CFA at the base of their tail. One week later, the mice were challenged with KLH in PBS in their right footpad, while the left footpad received ovalbumin in PBS as a control. Footpad swelling was expressed as the average size increase of the KLH injected footpad compared to the control footpad±SD (n=5 mice/group, *p<0.005, **p<0.002, ***p<0.001).
The next day, the mice were immunized with 100 μg keyhole limpet hemocyanin (KLH, Sigma), a prototypic foreign antigen, in 50% CFA at the base of their tail. One week later, the mice were challenged with KLH (100 μg in 25 μl PBS) in their right footpad, while the left footpad received ovalbumin (100 μg in […] PBS) as a control. Both hind feet were measured before injection and at 24, 48, 72 and 96 hrs post injection using a monostat caliper. Footpad swelling was expressed as the average size increase (in millimeters) of the KLH-injected footpad compared to the control ovalbumin-injected footpad of each animal. The measurements were conducted in a blinded fashion on coded animals.

[6] = test system: splenic T cell; assay: anti-CD3 stimulated splenic T cell proliferation (3H-thymidine incorporation); type: cell-based, Balb/c mice
Method: During the last 8 hours of incubation, ^3H-thymidine (1 μCi/well) was added into each well to determine T cell proliferation. […] The background level of ^3H-thymidine incorporation in medium alone was 1,965-2,400 cpm. Groups of 5-6 mice were tested in two independent experiments.
The data are presented as the mean percent ^3H-thymidine incorporation relative to the positive control from groups of 5-6 mice which were tested in 2-3 independent experiments.

[7] = test system: lymph node T cell; assay: antigen-primed lymph node T cell proliferative recall response (3H-thymidine incorporation); type: cell-based, NOD, Balb/c and AKR mice; conditions: for immuno-inhibitory effect of GABA on co-incubation with the compound: different (also high) concentrations of GABA, GADp35; for immuno-inhibitory effect of GABA on co-incubation with the compound / effect on GABA-mediated inhibition of T cell proliferation: co-incubation; for effect on GABA-mediated inhibition of T cell proliferation: 1 μM-500 μM
Method: NOD, Balb/c and AKR mice were immunized with an immunogenic foreign (HEL) or self (GAD) peptide in 50% CFA. […] Groups of 5 mice were tested in two independent experiments.
Lymph node mononuclear cells from GADp35 primed NOD mice were pretreated with different concentrations of muscimol or baclofen in vitro, and then challenged with 7 μM GADp35 to stimulate antigen specific T cell proliferation. The data are presented as the per cent ^3H-thymidine incorporation relative to control peptid-estimulated cells without muscimol or baclofen treatment. Lymph node mononuclear cells in medium alone served as negative controls. […] Groups of 5-6 mice were tested in two independent experiments.
Groups of 5 mice were tested in three independent experiments.
Lymph node mononuclear cells from NOD mice which were immunized with GADp35 were cultured with bicuculline, RU5135 or picrotoxin. […] The data are expressed as the per cent ^3H-thymidine incorporation relative to control antigen-stimulated cells without any drug treatment. […] Groups of 5-6 mice were tested in three independent experiments.
Three strains of mice with different MHC class II alleles were immunized with an immunogenic peptide from hen egg lysozyme (HEL). […] Mice were injected with 20 nM peptide in 50% complete Freund's adjuvant (CFA, Gibco) in their hind food-pad.
GAD peptides were selected from an overlapping set of peptides which span the GAD molecule (Atkinson et al. (1994) J. Clin. Invest. 94:2125-2129). GAD65 peptide 35 (GADp35) contains a self-antigen determinant for NOD (H-2^NOD; Taconic Farms) and BALB/c (H-2^d) mice (Jackson Laboratory) and GAD peptide 25 (GADp25) contains a self-antigen determinant for AKR (H-2^k) mice (Jackson Laboratory; Kaufman et al. (1993) Nature 366:69-72). Following immunization with 20 nM of immunogenic GAD peptide in 50% complete Freund's adjuvant (CFA, Gibco), T cell proliferation was assayed as described above.

[8] = 21-day slow release GABA pellet
[9] = NOD, Balb/c and AKR mice, 7 μM peptide, different concentrations of GABA

NCCCC(=O)O [GABA, γ-Aminobutyric acid]
CTLL-2 cell response to recombinant murine IL-2 on addition of compound [1]: unaffected | antigen-induced IL-2 secretion [2]: reduced in a dose-dependent manner | effect on T cell response to PMA and ionomycin [3]: did not significantly affect | diabetes incidence after adoptive transfer [4, 8]: significantly reduced diabetes incidence | onset of IDDM beginning at [4, 8]: 4 weeks | onset of IDDM in mice that developed it [4, 8]: delayed onset | onset of IDDM beginning at ([4]; 60-day slow release GABA pellet): 7 weeks | signs of toxicity ([5]; mice implanted with GABA-releasing pellets (600 μg GABA/day)): no obvious signs of toxicity | less footpad swelling in response to KLH than placebo-treated mice ([5]; pellet releasing 600 μg/day GABA, under the skin, 24-72 hour response period, p<0.005): 30-50% | impact on T cell survival ([6]; in vitro culture): little impact on T cell survival | T cell proliferation with the compound itself (without anti-CD3) ([6]; without anti-CD3): failed to stimulate T cell proliferation | T cell recall proliferation to foreign antigen (HEL peptides) [7, 9]: inhibit T cell proliferation to the immunogens in a dose-dependent manner | T cell recall proliferation to self-antigen (GAD peptides) [7, 9]: inhibit proliferative T cell responses to the injected antigen in all three strains of mice in a dose-dependent manner

C[C@]12CC[C@@H](O)C[C@H]1CC[C@@H]1[C@@H]2C(=O)C[C@]2(C)N=C(N)C[C@@H]12 [RU5315]
immuno-inhibitory effect of GABA on co-incubation with the compound [7]: greatly reduced

NCC(CC(=O)O)c1ccc(Cl)cc1 (centres unmarked) [baclofen]
effect on T cell proliferation ([7]; 10 μM-10 mM): little effect | interference with the immuno-suppressive action of muscimol ([7]; 10 μM-10 mM, with muscimol): did not interfere

N[C@@H](CCC(=O)O)C(=O)O [glutamic acid]
effect on T cell proliferative responses, alone or co-incubated with GABA ([7]; 10 μM-10 mM): little effect

NCc1cc(=O)[nH]o1 [muscimol]
anti-CD3 induced T cell proliferation ([6]; different concentrations): inhibit in a dose-dependent manner | reduction of antigen primed T cell responses ([7]; 300 μM, GADp35 primed NOD mice): approximately 40% | antigen-induced T cell proliferation ([7]; different concentrations, 7 μM GADp35): inhibit in a dose-dependent manner

O=C(O)C1CCCNC1 (centres unmarked) [nipecotic acid]
effect on GABA-mediated inhibition of T cell proliferation [7]: did not significantly affect

CCCC(C)C1(CC)C(=O)NC(=O)NC1=O (centres unmarked) [pentobarbital]
effect on GABA inhibition of T cell responses ([7]; 3 μM with different concentrations of GABA, 7 μM GADp35, 96 hours): potentiated the actions of GABA | impact of compound without GABA on antigen-primed T cell proliferation ([7]; 3 μM, without GABA): little impact

NCCC(=O)O [β-alanine]
effect on T cell proliferative responses, alone or co-incubated with GABA ([7]; 10 μM-10 mM): little effect

C=CC(N)CCC(=O)O (centres unmarked) [γ-vinyl-GABA]
effect on GABA-mediated inhibition of T cell proliferation [7]: did not significantly affect

picrotoxin
immuno-inhibitory effect of GABA on co-incubation with the compound [7]: almost abolished
